Results on 5 compounds are retold here after US8084429B2, “Compounds and their analgesic applications” (priority 2002, dated 2011).

Starred links: 1 amine or outer side, 2 acyl side, 3 side chain; linkers in the order of their positions; H or OH if unused. Positions of bridges follow the written chain, without caps; N, C: chain ends. Non-standard residues stand in square brackets, D forms with d. Residues, ends and D or L forms follow the SMILES beside them. Chains are numbered I, II in the order given. NHNH = N(N[*:2])[*:1]

The subject of the series is rat. The experiment in a line: observation of undesirable effects after intrathecal administration. Type of series: in vivo. Here is the method: A silicone catheter was introduced into the intrathecal space of a rat in the cervical region of the spine, having an external diameter of 0.64 mm and an internal diameter of 0.3 mm. The 12 cm long catheter was prepared in the following way: at a distance of 7.5 cm from the end of the catheter, a flange was made around it with soft silicone glue. The remaining 4.5 cm stretch of the catheter was extended to the outside and connected to a 30G needle mounted on a 25 microliter Hamilton syringe. The implantation of the catheter was made under general anaesthesia. After shaving the coat from the shoulders and neck, the rat was placed in a stereotactic apparatus. The 1.5 cm long incision was made centrally, front to rear, along the axis of the spine. After reaching the muscles, they were prised apart and access to the basal membrane was prepared. The basal membrane was incised. The prepared catheter, filled with a sterile physiological saline solution, was inserted the through the incision in the membrane to a depth of 7.5 cm towards the rear, so that its end was found at the location of the L1. The muscle and skin were sutured. After recovery from general anaesthesia the rats were placed in separate cages. Biphaline was administered and measurements were made during the second day following the operation. All epidural injections were made at a constant volume of 10 microliters. Following the injection, the catheter was rinsed with 15 microliters of sterile physiological saline solution. Analgesis was measured in relation to a tail retraction test to which a thermal stimulus was applied in the form of a beam of light with a temperature of 55° C. The temperature and focus of the light was such that the time of reaction of the rat fit within the 2-3 second margin. The maximum time that the tail was agitated with the pain-stimulating light stimulus was set as 7 seconds, so as not to cause tail burns connected with a prolonged exposure of tissues to temperature. The pain-stimulating stimulus threshold was determined previous to administration of the compounds, as well as at the 5, 15, 30, 60 and 120 minutes following the administration. The degree of analgesis was expressed as a percent of the maximum possible effect (denoted as % MPE) according to the following equation: […]

In the case of `NC(=O)CC[C@@H](NC(=O)[C@@H](N)Cc1ccc(O)cc1)C(=O)NCC(=O)N[C@@H](Cc1ccccc1)C(=O)NNC(=O)[C@H](Cc1ccccc1)NC(=O)CNC(=O)[C@@H](CCC(N)=O)NC(=O)[C@@H](N)Cc1ccc(O)cc1` [(Tyr-D-Gln-Gly-Phe-NH—)2, (Tyr-D-Gln-Gly-Phe-NH-)2] (I: H-Y[dQ]GF / II: H-Y[dQ]GF; linker I:C-II:C via NHNH), the undesirable effects result (0.05 micrograms intrathecal) is given as “No undesirable effects were observed”.
For the compound `CC(C)C[C@@H](NC(=O)[C@@H](N)Cc1ccc(O)cc1)C(=O)NCC(=O)N[C@@H](Cc1c[nH]c2ccccc12)C(=O)NNC(=O)[C@H](Cc1c[nH]c2ccccc12)NC(=O)CNC(=O)[C@@H](CC(C)C)NC(=O)[C@@H](N)Cc1ccc(O)cc1` [(Tyr-D-Leu-Gly-Trp-NH—)2, (Tyr-D-Leu-Gly-Trp-NH-)2] (I: H-Y[dL]GW / II: H-Y[dL]GW; linker I:C-II:C via NHNH), the undesirable effects result (0.05 micrograms intrathecal) is “No undesirable effects were observed”.
With `CSCC[C@@H](NC(=O)[C@@H](N)Cc1ccc(O)cc1)C(=O)NCC(=O)N[C@@H](Cc1ccccc1)C(=O)NNC(=O)[C@H](Cc1ccccc1)NC(=O)CNC(=O)[C@@H](CCSC)NC(=O)[C@@H](N)Cc1ccc(O)cc1` [(Tyr-D-Met-Gly-Phe-NH—)2, (Tyr-D-Met-Gly-Phe-NH-)2] (I: H-Y[dM]GF / II: H-Y[dM]GF; linker I:C-II:C via NHNH), where the note is “0.05 micrograms intrathecal”, the undesirable effects entry is on record as “No undesirable effects were observed”.
Consider `C[C@H](O)[C@@H](NC(=O)[C@@H](N)Cc1ccc(O)cc1)C(=O)NCC(=O)N[C@@H](Cc1ccccc1)C(=O)NNC(=O)[C@H](Cc1ccccc1)NC(=O)CNC(=O)[C@H](NC(=O)[C@@H](N)Cc1ccc(O)cc1)[C@H](C)O` [(Tyr-D-Thr-Gly-Phe-NH—)2, (Tyr-D-Thr-Gly-Phe-NH-)2] (I: H-Y[dT]GF / II: H-Y[dT]GF; linker I:C-II:C via NHNH), for which, under “0.05 micrograms intrathecal”, the undesirable effects entry is listed as “No undesirable effects were observed”.
For `C[C@@H](NC(=O)[C@@H](N)Cc1ccc(O)cc1)C(=O)NCC(=O)N[C@@H](Cc1ccccc1)C(=O)NNC(=O)[C@H](Cc1ccccc1)NC(=O)CNC(=O)[C@@H](C)NC(=O)[C@@H](N)Cc1ccc(O)cc1` [biphaline, (Tyr-D-Ala-Gly-Phe-NH-)2], the undesirable effects entry (0.005 micrograms, then 0.003 micrograms every half hour for 8 hours, intrathecal) is given as “No undesirable effects were observed” and the undesirable effects entry (0.5 micrograms intrathecal) is “No undesirable effects were observed”. The compound further displayed a duration of stiffness (25 micrograms intrathecal) of 4 h. Where the note is “25 micrograms intrathecal, after three minutes following the injection”, the muscle stiffness entry is “stiffness of limb and back muscles was observed”. In addition, the respiratory ability result (25 micrograms intrathecal, during stiffness) is “respiratory ability was maintained”. In addition, under “extremely high dosages, as much as a thousand-fold the minimal effective analgesic dose”, the respiratory depression result is listed as “did not cause respiratory depression”.
